Experimental data reported in US20100022491A1, “4-HYDROXY-2-OXO-2,3-DIHYDRO-1,3-BENZOTHIAZOL-7YL COMPOUNDS FOR MODULATION OF B2-ADRENORECEPTOR ACTIVITY” (ASTRAZENECA AB, priority 2006, published 2010).
Structures can show the parent of a compound that is named as a salt.

What was measured:
[1] = molecular target: T1, recombinant human Dopamine Subtype D2s receptors (Homo sapiens, UniProt P14416); assay: Dopamine D2 selectivity binding assay ([3H]-spiperone); conditions: inhibition of [3H]-spiperone (0.16 nM) binding; for IC50: read-out: D2 bind pIC50 (converted)
T1 construct: purchased Perkin Elmer
In short: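 Recombinant human D2s membranes incubated 2 h at room temperature with 0.16 nM [3H]-spiperone in HEPES/EDTA/NaCl/gelatin buffer, pH 7.4; 10 μM haloperidol defined non-specific binding. Filter-bound radioactivity counted after cold washes. pIC50 from 4-parameter logistic fit of NSB-corrected specific binding.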

[2] = molecular target: T2, Adrenergic β2 (Homo sapiens, UniProt P07550); assay: Adrenergic β2 mediated cAMP production in H292 cells; type: cell-based; conditions: for EC50: read-out: β2 pEC50 (converted); for β2 Int Act: Intrinsic Activity as a fraction relative to the maximum activity determined for formoterol
T2 construct: Adherent H292 cells were removed from tissue culture flasks; endogenous in cells; host or cells: H292 cells
In short: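 H292 cells pretreated 10 min with rolipram (300 μM final), then exposed to agonist 60 min at room temperature in HEPES-buffered HBSS, 1.6% DMSO final. Lysate cAMP quantified by AlphaScreen against a cAMP standard curve; four-parameter fit gives pEC50 and intrinsic activity relative to formoterol maximum.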

[3] = molecular target: T3, recombinant human adrenergic beta 1 receptors (Homo sapiens, UniProt P08588); assay: Adrenergic β1 selectivity binding assay ([125I]-Iodocyanopindolol); conditions: inhibition of [125I]-Iodocyanopindolol (0.036 nM) binding; for IC50: read-out: β1 bind p IC50 (converted)
T3 construct: purchased Euroscreen
In short: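 Recombinant human β1 membranes in HEPES buffer pH 7.4 with 120 mM NaCl were incubated 2 hours at room temperature with 0.036 nM [^125I]-Iodocyanopindolol. Nonspecific binding defined by 10 μM propranolol; bound radioactivity counted after filtration. pIC50 from four-parameter logistic fit.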

[4] = H292 cells, cAMP by AlphaScreen, 60 minutes at room temperature, rolipram 300 μM

T2 sequence (P07550 whole entry): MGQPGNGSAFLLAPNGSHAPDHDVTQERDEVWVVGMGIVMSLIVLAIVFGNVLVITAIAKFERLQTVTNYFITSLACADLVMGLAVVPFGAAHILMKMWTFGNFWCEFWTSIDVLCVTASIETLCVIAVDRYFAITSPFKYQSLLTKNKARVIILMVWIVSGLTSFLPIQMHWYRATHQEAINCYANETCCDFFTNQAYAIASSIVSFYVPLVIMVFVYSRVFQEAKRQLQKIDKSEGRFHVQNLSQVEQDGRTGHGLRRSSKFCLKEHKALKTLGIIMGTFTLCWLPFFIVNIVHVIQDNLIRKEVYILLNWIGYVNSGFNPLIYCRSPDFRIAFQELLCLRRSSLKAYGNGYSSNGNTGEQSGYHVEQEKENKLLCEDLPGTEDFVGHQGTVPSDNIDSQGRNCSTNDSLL
T1 sequence (P14416 1-414 isoform P14416-2): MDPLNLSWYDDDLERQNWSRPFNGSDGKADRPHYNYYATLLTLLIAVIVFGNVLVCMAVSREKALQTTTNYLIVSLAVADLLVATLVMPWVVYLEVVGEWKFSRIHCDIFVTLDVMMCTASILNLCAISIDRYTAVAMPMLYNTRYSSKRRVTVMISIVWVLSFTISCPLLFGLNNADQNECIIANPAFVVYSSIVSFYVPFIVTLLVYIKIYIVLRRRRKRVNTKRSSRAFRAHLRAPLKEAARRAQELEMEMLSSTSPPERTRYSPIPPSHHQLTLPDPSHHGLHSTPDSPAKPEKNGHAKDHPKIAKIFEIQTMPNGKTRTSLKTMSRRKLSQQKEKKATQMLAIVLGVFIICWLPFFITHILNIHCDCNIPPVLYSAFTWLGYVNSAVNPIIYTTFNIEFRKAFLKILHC
T3 sequence (P08588 whole entry): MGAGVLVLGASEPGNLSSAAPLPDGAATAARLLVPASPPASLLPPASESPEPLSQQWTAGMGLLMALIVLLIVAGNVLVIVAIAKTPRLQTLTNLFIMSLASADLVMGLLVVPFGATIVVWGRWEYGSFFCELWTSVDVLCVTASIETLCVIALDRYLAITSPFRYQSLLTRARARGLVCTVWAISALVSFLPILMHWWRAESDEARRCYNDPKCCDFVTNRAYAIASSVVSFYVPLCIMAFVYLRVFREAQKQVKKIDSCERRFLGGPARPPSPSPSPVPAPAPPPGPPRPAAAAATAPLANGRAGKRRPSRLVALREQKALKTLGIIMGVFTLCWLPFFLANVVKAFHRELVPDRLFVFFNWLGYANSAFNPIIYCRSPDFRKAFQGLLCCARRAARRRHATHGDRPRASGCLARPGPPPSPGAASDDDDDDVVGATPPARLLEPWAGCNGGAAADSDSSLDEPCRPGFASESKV

Row | IC50 [1] [nM] | EC50 [2, 4] [nM] | β2 Int Act [2] | IC50 [3] [nM] | SMILES | D2 bind pIC50 [1] | β2 pEC50 [2, 4] | β1 bind p IC50 [3]
1 | 126 | 5.01 | 0.71 | 3160 | O=C(CCNCCc1ccc(Cl)cc1)N(CCNCCc1ccc(O)c2[nH]c(=O)sc12)C1CCCCC1 [Example 13, N^3-[2-(4-Chlorophenyl)ethyl]-N-cyclohexyl-N-(2-{[2-(4-hydroxy-2-oxo-2,3-dihydro-1,3-benzothiazol-7-yl)ethyl]amino}ethyl)-β-alaninamide bis-trifluoroacetic acid salt] | – | – | –
2 | 50.1 | 10 | 0.69 | 2510 | O=C(CCNCCc1cccc(OC(F)F)c1)N(CCNCCc1ccc(O)c2[nH]c(=O)sc12)C1CCCCCC1 [Example 54, N-Cycloheptyl-N^3-{2-[3-(difluoromethoxy)phenyl]ethyl}-N^1-(2-{[2-(4-hydroxy-2-oxo-2,3-dihydro-1,3-benzothiazol-7-yl)ethyl]amino}ethyl)-β-alaninamide bis-trifluoroacetic acid salt] | – | – | –
3 | 158 | 3.16 | 0.73 | 1260 | O=C(CCNCCc1cccc(Cl)c1)N(CCNCCc1ccc(O)c2[nH]c(=O)sc12)C1CCC(F)(F)CC1 [Example 47, N^3-[2-(3-Chlorophenyl)ethyl]-N^1-(4,4-difluorocyclohexyl)-N^1-(2-{[2-(4-hydroxy-2-oxo-2,3-dihydro-1,3-benzothiazol-7-yl)ethyl]amino}ethyl)-β-alaninamide bis-trifluoroacetic acid salt] | – | – | –
4 | 200 | 2.51 | 0.84 | 3160 | O=C(CCNCCc1cccc(F)c1)N(CCNCCc1ccc(O)c2[nH]c(=O)sc12)C1CCCCCC1 [Example 36, N-Cycloheptyl-N^3-[2-(3-fluorophenyl)ethyl]-N-(2-{[2-(4-hydroxy-2-oxo-2,3-dihydro-1,3-benzothiazol-7-yl)ethyl]amino}ethyl)-β-alaninamide bis-trifluoroacetic acid salt] | – | – | –
5 | 251 | 3.16 | 1.04 | 5010 | O=C(CCNCCc1ccccc1)N(CCNCCc1ccc(O)c2[nH]c(=O)sc12)C1CCCC1 [Example 2, N-Cyclopentyl-N-(2-{[2-(4-hydroxy-2-oxo-2,3-dihydro-1,3-benzothiazol-7-yl)ethyl]amino}ethyl)-N^3-(2-phenylethyl)-β-alaninamide bis-trifluoroacetic acid salt] | – | – | –

Further lines, the molecule ahead of its results:

Row | SMILES | IC50 [1] [nM] | EC50 [2, 4] [nM] | β2 Int Act [2] | IC50 [3] [nM] | D2 bind pIC50 [1] | β2 pEC50 [2, 4] | β1 bind p IC50 [3]
6 | COc1cccc(CCNCCC(=O)N(CCNCCc2ccc(O)c3[nH]c(=O)sc23)CC(C)(C)C)c1 [Example 43, N^1-(2,2-Dimethylpropyl)-N^1-(2-{[2-(4-hydroxy-2-oxo-2,3-dihydro-1,3-benzothiazol-7-yl)ethyl]amino}ethyl)-N^3-[2-(3-methoxyphenyl)ethyl]-β-alaninamide bis-trifluoroacetic acid salt] | 200 | 10 | 0.67 | 5010 | – | – | –
7 | O=C(CCNCCc1cc(F)cc(F)c1)N(CCNCCc1ccc(O)c2[nH]c(=O)sc12)C1CCCCC1 [Example 92, N-Cyclohexyl-N^3-[2-(3,5-difluorophenyl)ethyl]-N-(2-{[2-(4-hydroxy-2-oxo-2,3-dihydro-1,3-benzothiazol-7-yl)ethyl]amino}ethyl)-β-alaninamide dihydrobromide salt] | – | – | – | – | 6.5 | 8.5 | 5.4
8 | O=C(CCNCCc1c(F)cccc1F)N(CCNCCc1ccc(O)c2[nH]c(=O)sc12)C1CCCCCC1 [Example 84, N^1-Cycloheptyl-N^3-[2-(2,6-difluorophenyl)ethyl]-N^1-(2-{[2-(4-hydroxy-2-oxo-2,3-dihydro-1,3-benzothiazol-7-yl)ethyl]amino}ethyl)-β-alaninamide bis-trifluoroacetic acid salt] | 79.4 | 20 | 0.89 | 1000 | – | – | –
9 | O=C(CCNCCc1ccc(Cl)s1)N(CCNCCc1ccc(O)c2[nH]c(=O)sc12)C1CCCCC1 [Example 72, N^3-[2-(5-Chloro-2-thienyl)ethyl]-N^1-cyclohexyl-N^1-(2-{[2-(4-hydroxy-2-oxo-2,3-dihydro-1,3-benzothiazol-7-yl)ethyl]amino}ethyl)-β-alaninamide bis-trifluoroacetic acid salt] | 126 | 3.98 | 0.89 | 3160 | – | – | –
10 | O=C(CCNCCc1ccc2c(c1)OCO2)N(CCNCCc1ccc(O)c2[nH]c(=O)sc12)C1CCCCC1 [Example 76, N^3-[2-(1,3-Benzodioxol-5-yl)ethyl]-N^1-cyclohexyl-N^1-(2-{[2-(4-hydroxy-2-oxo-2,3-dihydro-1,3-benzothiazol-7-yl)ethyl]amino}ethyl)-β-alaninamide bis-trifluoroacetic acid salt] | 200 | 6.31 | 0.68 | 3980 | – | – | –
11 | O=C(CCNCCc1ccccc1)N(CCNCCc1ccc(O)c2[nH]c(=O)sc12)C1Cc2ccccc2C1 [Example 41, N^1-(2,3-Dihydro-1H-inden-2-yl)-N^1-(2-{[2-(4-hydroxy-2-oxo-2,3-dihydro-1,3-benzothiazol-7-yl)ethyl]amino}ethyl)-N^3-(2-phenylethyl)-β-alaninamide bis-trifluoroacetic acid salt] | 200 | 31.6 | 0.99 | 1580 | – | – | –
12 | C[C@H](CNCCC(=O)N(CCNCCc1ccc(O)c2[nH]c(=O)sc12)CC(C)(C)C)c1ccccc1 [Example 11, N-(2,2-Dimethylpropyl)-N-(2-{[2-(4-hydroxy-2-oxo-2,3-dihydro-1,3-benzothiazol-7-yl)ethyl]amino}ethyl)-N^3-[(2S)-2-phenylpropyl]-β-alaninamide bis-trifluoroacetic acid salt] | 501 | 15.8 | 0.84 | 7940 | – | – | –
13 | CCCC[C@@H](C)N(CCNCCc1ccc(O)c2[nH]c(=O)sc12)C(=O)CCNCCc1ccccc1 [Example 101, N-(2-{[2-(4-Hydroxy-2-oxo-2,3-dihydro-1,3-benzothiazol-7-yl)ethyl]amino}ethyl)-N-[(1R)-1-methylpentyl]-N^3-(2-phenylethyl)-β-alaninamide bis-trifluoroacetic acid salt] | 31.6 | 2.51 | 0.98 | 3980 | – | – | –
14 | Cc1ccccc1CCNCCC(=O)N(CCNCCc1ccc(O)c2[nH]c(=O)sc12)C1CCOCC1 [Example 27, N-(2-{[2-(4-Hydroxy-2-oxo-2,3-dihydro-1,3-benzothiazol-7-yl)ethyl]amino}ethyl)-N^3-[2-(2-methylphenyl)ethyl]-N-(tetrahydro-2H-pyran-4-yl)-β-alaninamide bis-trifluoroacetic acid salt] | 3160 | 10 | 0.95 | 5010 | – | – | –
15 | O=C(CCNCCc1ccc(F)c(F)c1)N(CCNCCc1ccc(O)c2[nH]c(=O)sc12)C1CCCCCC1 [Example 53, N^1-Cycloheptyl-N^1-[2-(3,4-difluorophenyl)ethyl]-N^1-(2-{[2-(4-hydroxy-2-oxo-2,3-dihydro-1,3-benzothiazol-7-yl)ethyl]amino}ethyl)-β-alaninamide bis-trifluoroacetic acid salt] | 79.4 | 10 | 0.74 | 3980 | – | – | –
16 | O=C(CCNC[C@@H](O)c1ccccc1)N(CCNCCc1ccc(O)c2[nH]c(=O)sc12)C1CCCCC1 [Example 74, N^1-Cyclohexyl-N^1-(2-{[2-(4-hydroxy-2-oxo-2,3-dihydro-1,3-benzothiazol-7-yl)ethyl]amino}ethyl)-N^3-[(2S)-2-hydroxy-2-phenylethyl]-β-alaninamide bis-trifluoroacetic acid salt] | 501 | 12.6 | 0.79 | 3160 | – | – | –
17 | O=C(CCNCCc1ccc(F)cc1)N(CCNCCc1ccc(O)c2[nH]c(=O)sc12)CC12CC3CC(CC(C3)C1)C2 [Example 61, N^1-(1-Adamantylmethyl)-N^3-[2-(4-fluorophenyl)ethyl]-N^1-(2-{[2-(4-hydroxy-2-oxo-2,3-dihydro-1,3-benzothiazol-7-yl)ethyl]amino}ethyl)-β-alaninamide bis-trifluoroacetic acid salt] | 794 | 10 | 0.79 | 2510 | – | – | –
